Data from the NIST ThermoML archive (doi:10.1021/acs.jced.6b00655).
Where “and” joins values, the source holds several entries; their conditions need not be identical. Identical values can stand only once.

Tests used:
[1] = xn = mol fraction of the nth substance listed; conditions: 100 kPa, Liquid, Vibrating tube method
[2] = 283.15 K; 100 kPa; Liquid; Vibrating tube method

CCCC[N+]1(C)CCCC1.O=S(=O)([O-])C(F)(F)F [1-butyl-1-methylpyrrolidinium trifluoromethanesulfonate] + CCc1ccccc1
[1], 283.15 K
Conditions | mass density [kg/m3]
x2 = 0 | 1263.17
x2 = 0.044 | 1254.99
x2 = 0.107 | 1240.68
x2 = 0.209 | 1220.18
x2 = 0.309 | 1193.98
x2 = 0.391 | 1174.45
x2 = 0.42 | 1164.28

CCCC[N+](C)(CCCC)CCCC.O=S(=O)([N-]S(=O)(=O)C(F)(F)F)C(F)(F)F [tributylmethylammonium bis((trifluoromethyl)sulfonyl)imide] + Cc1ccccc1C
[1], 343.15 K
Conditions | mass density [kg/m3]
x2 = 0 | 1224.15
x2 = 0.152 | 1204.93
x2 = 0.26 | 1188.05
x2 = 0.365 | 1168.37
x2 = 0.506 | 1134.17
x2 = 0.623 | 1096.91
x2 = 0.751 | 1046.57

CCCC[N+]1(C)CCCC1.O=S(=O)([O-])C(F)(F)F [1-butyl-1-methylpyrrolidinium trifluoromethanesulfonate]
Conditions | mass density
[2] | 1263.28 kg/m3 and 1263.17 kg/m3

CCCC[N+]1(C)CCCC1.N#CN=C=[N-] [1-butyl-1-methylpyrrolidinium dicyanamide] + Cc1ccc(C)cc1
[1], 283.15 K
Conditions | mass density [kg/m3]
x2 = 0 | 1022.94
x2 = 0.055 | 1019.77
x2 = 0.109 | 1015.55
x2 = 0.21 | 1009.54
x2 = 0.27 | 1005.7
x2 = 0.335 | 1000.17
x2 = 0.389 | 993.97

CCCC[N+](C)(C)C.O=S(=O)([N-]S(=O)(=O)C(F)(F)F)C(F)(F)F [butyltrimethylammonium bis(trifluoromethylsulfonyl)imide] + CCc1ccccc1
[1], 343.15 K
Conditions | mass density [kg/m3]
x2 = 0 | 1348.32
x2 = 0.037 | 1345.32
x2 = 0.099 | 1330.93
x2 = 0.245 | 1295.53
x2 = 0.309 | 1271.7
x2 = 0.397 | 1243.17
x2 = 0.448 | 1221.88
x2 = 0.498 | 1201.31

CCCC[N+](C)(C)C.O=S(=O)([N-]S(=O)(=O)C(F)(F)F)C(F)(F)F [butyltrimethylammonium bis(trifluoromethylsulfonyl)imide] + Cc1ccccc1
[1], 343.15 K
Conditions | mass density [kg/m3]
x2 = 0 | 1346.21
x2 = 0.1 | 1333.19
x2 = 0.202 | 1310.32
x2 = 0.316 | 1279.85
x2 = 0.404 | 1252.66
x2 = 0.502 | 1211.78
x2 = 0.61 | 1167.51
x2 = 0.643 | 1150.47

CCCC[N+]1(C)CCCC1.O=S(=O)([O-])C(F)(F)F [1-butyl-1-methylpyrrolidinium trifluoromethanesulfonate] + Cc1cccc(C)c1
[1], 283.15 K
Conditions | mass density [kg/m3]
x2 = 0 | 1263.17
x2 = 0.054 | 1253.29
x2 = 0.11 | 1241.72
x2 = 0.202 | 1221.84
x2 = 0.308 | 1195.52
x2 = 0.352 | 1184.04
x2 = 0.402 | 1170.32
x2 = 0.418 | 1165.83

CCCC[N+]1(C)CCCC1.O=S(=O)([O-])C(F)(F)F [1-butyl-1-methylpyrrolidinium trifluoromethanesulfonate] + c1ccccc1
[1], 283.15 K
Conditions | mass density [kg/m3]
x2 = 0 | 1263.28
x2 = 0.047 | 1257.62
x2 = 0.095 | 1251.22
x2 = 0.199 | 1235.63
x2 = 0.293 | 1218.76
x2 = 0.405 | 1195.65
x2 = 0.503 | 1170.77
x2 = 0.601 | 1140.47
x2 = 0.644 | 1125.22
x2 = 0.675 | 1112.49
x2 = 0.701 | 1101.39
x2 = 0.718 | 1093.71
x2 = 0.738 | 1084.59

CCCC[N+]1(C)CCCC1.O=S(=O)([N-]S(=O)(=O)C(F)(F)F)C(F)(F)F + Cc1ccccc1
[1], 283.15 K
Conditions | mass density [kg/m3]
x2 = 0 | 1407.6
x2 = 0.509 | 1276.06
x2 = 0.574 | 1250.95
x2 = 0.611 | 1228.59
x2 = 0.73 | 1160.93

CCCC[N+]1(C)CCCC1.O=S(=O)([O-])C(F)(F)F [1-butyl-1-methylpyrrolidinium trifluoromethanesulfonate] + Cc1ccc(C)cc1
[1], 283.15 K
Conditions | mass density [kg/m3]
x2 = 0 | 1263.17
x2 = 0.053 | 1249.16
x2 = 0.102 | 1242.37
x2 = 0.203 | 1216.86
x2 = 0.306 | 1195.95
x2 = 0.361 | 1180.48
x2 = 0.415 | 1164.5

CCCC[N+](C)(C)C.O=S(=O)([N-]S(=O)(=O)C(F)(F)F)C(F)(F)F [butyltrimethylammonium bis(trifluoromethylsulfonyl)imide] + Cc1ccccc1C
[1], 343.15 K
Conditions | mass density [kg/m3]
x2 = 0 | 1348.32
x2 = 0.046 | 1343.67
x2 = 0.099 | 1331.9
x2 = 0.207 | 1306.39
x2 = 0.309 | 1276.95
x2 = 0.398 | 1246.25
x2 = 0.481 | 1213.91
x2 = 0.542 | 1191.25

CCCC[N+]1(C)CCCC1.N#CN=C=[N-] [1-butyl-1-methylpyrrolidinium dicyanamide] + CCc1ccccc1
[1], 283.15 K
Conditions | mass density [kg/m3]
x2 = 0 | 1022.97
x2 = 0.044 | 1020.28
x2 = 0.11 | 1016.49
x2 = 0.2 | 1010.5
x2 = 0.307 | 1002.43
x2 = 0.359 | 997.98
x2 = 0.397 | 994.71

CCCC[N+](C)(C)C.O=S(=O)([N-]S(=O)(=O)C(F)(F)F)C(F)(F)F [butyltrimethylammonium bis(trifluoromethylsulfonyl)imide] + c1ccccc1
[1], 343.15 K
Conditions | mass density [kg/m3]
x2 = 0 | 1348.32
x2 = 0.096 | 1335.57
x2 = 0.2 | 1316.52
x2 = 0.308 | 1288.49
x2 = 0.414 | 1262.43
x2 = 0.512 | 1229.56
x2 = 0.613 | 1185.89
x2 = 0.762 | 1105.62

CCCC[N+](C)(C)C.O=S(=O)([N-]S(=O)(=O)C(F)(F)F)C(F)(F)F [butyltrimethylammonium bis(trifluoromethylsulfonyl)imide] + Cc1cccc(C)c1
[1], 343.15 K
Conditions | mass density [kg/m3]
x2 = 0 | 1348.32
x2 = 0.057 | 1340.71
x2 = 0.099 | 1330.46
x2 = 0.2 | 1304.78
x2 = 0.305 | 1274.33
x2 = 0.411 | 1235.86
x2 = 0.45 | 1222.37
x2 = 0.502 | 1201.38

CCCC[N+]1(C)CCCC1.N#CN=C=[N-] [1-butyl-1-methylpyrrolidinium dicyanamide]
Conditions | mass density
[2] | 1021.84 kg/m3 and 1022.97 kg/m3 and 1022.94 kg/m3

CCCC[N+]1(C)CCCC1.N#CN=C=[N-] [1-butyl-1-methylpyrrolidinium dicyanamide] + Cc1cccc(C)c1
[1], 283.15 K
Conditions | mass density [kg/m3]
x2 = 0 | 1022.94
x2 = 0.057 | 1019.68
x2 = 0.112 | 1016.11
x2 = 0.202 | 1009.68
x2 = 0.26 | 1006.3
x2 = 0.318 | 1000.45
x2 = 0.388 | 995.25

CCCC[N+](C)(C)C.O=S(=O)([N-]S(=O)(=O)C(F)(F)F)C(F)(F)F [butyltrimethylammonium bis(trifluoromethylsulfonyl)imide] + Cc1ccc(C)cc1
[1], 343.15 K
Conditions | mass density [kg/m3]
x2 = 0 | 1348.32
x2 = 0.056 | 1341.21
x2 = 0.096 | 1332.06
x2 = 0.196 | 1307.74
x2 = 0.307 | 1273.97
x2 = 0.414 | 1235.93
x2 = 0.486 | 1205.85
